Data: US9284322B2, “Nicotinic receptor compounds” (priority 2010, dated 2016)
Counter-ions that a name gives are not always drawn. Like-named read-outs stand apart in the source and are kept apart here.

Tests used:
mice [1] = format: in vivo, mouse; settings: mice; for AD50 Tail Flick: antagonist test; for Tail Flick, % effect at dose: @ 100 μg/kg
Experimental: (§1) Antinociception was assessed by the tail-flick method of F. E. D'Amour and D. L. Smith (J. Pharmacol. Exp. Ther. 1941, 72, 74-79). A control response (2-4 sec) was determined for each mouse before treatment, and a test latency was determined after drug administration. In order to minimize tissue damage, a maximum latency of 10 sec was imposed. Antinociceptive response was calculated as percent maximum possible effect (% MPE), where % MPE=[(test−control)/(10−control)]×100. Groups of eight to twelve animals were used for each dose and for each treatment. […] Eight to twelve mice were treated per dose and a minimum of four doses were performed for dose-response curve determination.
(§2) Table 6 provides data for a number of compounds of the invention that were tested according to the assays described above.

[2] = biological target: homomeric nAChRs containing the alpha7 subunit (α7) (Rattus norvegicus (Rat), UniProt Q05941); experiment: biochemical; format: binding
mice [3] = experiment: animal or person; format: in vivo, mouse; settings: for ED50 Tail Flick / Tail Flick, % effect at dose (ED50 column): mice, s.c.; for ED50 Tail Flick: tested 5 min after injection; for Tail Flick, % effect at dose (ED50 column): @ 10 mg/kg; for ED50: Mus musculus, sc, 5 min, read-out: ED50 Tail Flick
Experimental: as §1

mice [4] = experiment: animal or person; format: in vivo, mouse; settings: for ED50 Hot Plate / Hot Plate, % effect at dose (ED50 column): mice, s.c.; for ED50 Hot Plate: tested 5 min after injection; for Hot Plate, % effect at dose (ED50 column): @ 10 mg/kg; for ED50: Mus musculus, sc, 5 min, read-out: ED50 Hot Plate
Experimental: Mice were placed into a 10 cm wide glass cylinder on a hot plate (Thermojust Apparatus) maintained at 55.0° C. Two control latencies at least […] apart were determined for each mouse. The normal latency (reaction time) was 8 to 12 sec. Antinociceptive response was calculated as percent maximum possible effect (% MPE), where % MPE=[(test−control)/40−control)×100]. The reaction time was scored when the animal jumped or licked its paws.

mice [5] = experiment: animal or person; format: in vivo, mouse; settings: for ED50 Spontaneous Activity: mice, s.c., 5 min after administration, recorded for 10 min; for ED50: Mus musculus, sc, read-out: ED50 Spontaneous Activity
Experimental: Interruptions of the photocell beams (two banks of eight cells each) were then recorded for the next 10 min. Data were expressed as number of photocell interruptions.

mice [6] = format: in vivo, mouse; settings: for AD50 Hot Plate: antagonist test
Experimental: Mice were placed into a 10 cm wide glass cylinder on a hot plate (Thermojust Apparatus) maintained at 55.0° C. Two control latencies at least […] apart were determined for each mouse. […] Antinociceptive response was calculated as percent maximum possible effect (% MPE), where % MPE=[(test−control)/40−control)×100]. The reaction time was scored when the animal jumped or licked its paws.
as §2

mice [7] = experiment: animal or person; format: in vivo, mouse; settings: for ED50 Hypothermia: mice, s.c., rectal temperature 30 min after injection; for ED50: Mus musculus, sc, 0.5 h, read-out: ED50 Hypothermia
Experimental: Rectal temperature was measured by a thermistor probe (inserted 24 mm) and digital thermometer (Yellow Springs Instrument Co., Yellow Springs, Ohio). […] The difference in rectal temperature before and after treatment was calculated for each mouse. The ambient temperature of the laboratory varied from 21-24° C. from day to day.

[8] = biological target: heteromeric nAChRs containing alpha and beta subunits (αβ; alpha4 beta2 predominant) (Rattus norvegicus, UniProt P09483+P12390); format: binding; settings: read-out: αβ [3H]Epibatidine (Ki)
Experimental: The alpha4 beta2 subtype is the predominant nAChR present in brain tissue used in this assay.
Adult male rat cerebral cortices (Pelfreeze Biological, Rogers, Ark.) were homogenized in 39 volumes of ice-cold 50 mM Tris buffer (pH 7.4 at 4° C.) containing 120 mM NaCl, 5 mM KCl, 2 mM CaCl2, and 1 mM MgCl2 and sedimented at 37,000 g for 10 min at 4° C. The supernatant was discarded, the pellet resuspended in the original volume of buffer, and the wash procedure repeated twice more. After the last centrifugation, the pellet was resuspended in 1/10 its original homogenization volume and stored at −80° C. until needed. […] After a 4-h incubation period at room temperature, the samples were vacuum-filtered over GF/B filter papers presoaked in 0.03% polyethylenimine using a Brandel 48-well harvester and washed with 6 mL of ice-cold buffer. The amount of radioactivity trapped on the filter was determined by standard liquid scintillation techniques in a TriCarb 2200 scintillation counter (Packard Instruments, Meriden, Conn.) at approximately 50% efficiency. The binding data were fit using the nonlinear regression analysis routines in Prism (Graphpad, San Diego, Calif.). The Ki values for the test compounds were calculated from their respective IC50 values using the Cheng-Prusoff equation.

[9] = rat cerebral cortex homogenate, 40-50 pM [125I]MLA, read-out: α7 [125I]iodoMLA (Ki)

homomeric nAChRs containing the alpha7 subunit (α7), sequence (Q05941 23-502 limits assumed): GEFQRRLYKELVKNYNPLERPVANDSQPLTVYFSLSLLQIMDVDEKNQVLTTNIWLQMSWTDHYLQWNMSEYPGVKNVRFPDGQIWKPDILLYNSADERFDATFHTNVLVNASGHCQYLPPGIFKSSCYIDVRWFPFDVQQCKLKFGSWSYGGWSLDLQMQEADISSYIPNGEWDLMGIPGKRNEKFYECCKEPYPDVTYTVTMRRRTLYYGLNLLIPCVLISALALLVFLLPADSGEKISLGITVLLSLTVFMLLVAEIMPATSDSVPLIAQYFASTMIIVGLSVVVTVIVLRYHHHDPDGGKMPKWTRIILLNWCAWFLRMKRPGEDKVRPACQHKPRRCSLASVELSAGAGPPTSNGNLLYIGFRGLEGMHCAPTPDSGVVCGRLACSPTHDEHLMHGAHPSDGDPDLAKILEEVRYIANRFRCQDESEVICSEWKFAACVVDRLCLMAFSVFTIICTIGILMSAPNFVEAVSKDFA

Structure (SMILES) | AD50 Tail Flick (mice [1]) | Ki [2, 9] [nM] | ED50 Spontaneous Activity (mice [5]) | ED50 Hypothermia (mice [7]) | Ki [8] [nM] | Tail Flick, % effect at dose (ED50 column) (mice [3]) [% @ 10] | Hot Plate, % effect at dose (ED50 column) (mice [4]) [% @ 10] | other results
Fc1ncc(C2CC3CCC2N3)cc1-c1cccnc1 (stereo not drawn) | 3 (0.5-24) μg/kg | 5500 ± 1420 | 0.69 (0.4-12.8) mg/kg | 3.7 (2.9-4.5) mg/kg | 0.35 ± 0.038 | – | – | ED50 Tail Flick (mice [3]): 4.9 (3.6-6.7) mg/kg; ED50 Hot Plate (mice [4]): 5 (3.7-6.7) mg/kg; Hot Plate, % effect at dose (mice [6]; @ 1000 μg/kg): 10% @ 1000
Fc1ccc(-c2cc(C3CC4CCC3N4)cnc2F)cn1 (stereo not drawn) | – | 4850 ± 1800 | 0.38 (0.13-1.1) mg/kg | 0.68 (0.52-1.1) mg/kg | 0.049 ± 0.02 | – | – | Tail Flick, % effect at dose (mice [1]): 1% @ 100; ED50 Tail Flick (mice [3]): 3.6 (2.7-4.7) mg/kg; ED50 Hot Plate (mice [4]): 3.27 (2.1-5.3) mg/kg; Hot Plate, % effect at dose (mice [6]; @ 100 μg/kg): 1% @ 100
Fc1ncc(C2CC3CCC2N3)cc1-c1ccc(Cl)nc1 (stereo not drawn) | 9 (2-38) μg/kg | 6600 ± 731 | 1.58 (0.5-4.4) mg/kg | 3.11 (1.5-5.1) mg/kg | 0.063 ± 0.08 | 10 | 27 | AD50 Hot Plate (mice [6]): 2001 (297-3610) μg/kg
Nc1ccc(-c2cc(C3CC4CCC3N4)cnc2F)cn1 (stereo not drawn) | 30 (3-35) μg/kg | 1470 ± 203 | 1.84 (0.5-6.3) mg/kg | 2.8 (2-3.8) mg/kg | 0.25 ± 0.033 | 5 | 8 | Hot Plate, % effect at dose (mice [6]; @ 10 μg/kg): 50% @ 10
COc1ccc(-c2cc(C3CC4CCC3N4)cnc2F)cn1 (stereo not drawn) | 21 (3-125) μg/kg | 524 ± 110 | 0.53 (0.19-1.1) mg/kg | 0.77 (0.51-1.2) mg/kg | 0.13 ± 0.027 | – | – | ED50 Tail Flick (mice [3]): 4.22 (3-5.3) mg/kg; ED50 Hot Plate (mice [4]): 1.72 (0.9-3.4) mg/kg; Hot Plate, % effect at dose (mice [6]; @ 100 μg/kg): 0% @ 100
Fc1ncc(C2CC3CCC2N3)cc1-c1ccncc1 (stereo not drawn) | 12 (10-172) μg/kg | 9700 ± 2400 | 0.38 (0.2-2.7) mg/kg | 1.69 (1.1-2.6) mg/kg | 0.12 ± 0.03 | 13 | 40 | AD50 Hot Plate (mice [6]): 290 (19-991) μg/kg
Fc1cc(-c2cc(C3CC4CCC3N4)cnc2F)ccn1 (stereo not drawn) | 4 (0.1-70) μg/kg | 7300 ± 150 | 0.17 (0.08-1.5) mg/kg | 1.58 (0.97-2.1) mg/kg | 0.067 ± 0.01 | 5 | 18 | AD50 Hot Plate (mice [6]): 117 (110-1100) μg/kg
Fc1ncc(C2CC3CCC2N3)cc1-c1ccnc(Cl)c1 (stereo not drawn) | 320 (45-3262) μg/kg | > 10000 | 1.01 (0.27-3.7) mg/kg | 2.74 (1.89-3.5) mg/kg | 1.18 ± 0.14 | 11 | 19 | AD50 Hot Plate (mice [6]): 1370 (180-1430) μg/kg
Nc1cc(-c2cc(C3CC4CCC3N4)cnc2F)ccn1 (stereo not drawn) | 9 (0.4-19) μg/kg | 719 ± 101 | 0.61 (0.04-9.1) mg/kg | 1.87 (0.1-3.5) mg/kg | 0.13 ± 0.005 | 11 | 12 | Hot Plate, % effect at dose (mice [6]; @ 10,000 μg/kg): 10% @ 10,000
COc1cc(-c2cc(C3CC4CCC3N4)cnc2F)ccn1 (stereo not drawn) | – | 7900 ± 1080 | – | – | 0.04 ± 0.012 | – | – | –
Fc1cc(-c2cncc(C3CC4CCC3N4)c2)ccn1 (stereo not drawn) (as salt: fumarate) | – | – | – | – | – | – | – | melting point: 210 to 214 °C
COc1cc(-c2cncc(C3CC4CCC3N4)c2)ccn1 (stereo not drawn) (as salt: fumarate) | – | – | – | – | – | – | – | melting point: 160 to 164 °C
Fc1ncc(C2CC3CCC2N3)cc1-c1cncnc1 (stereo not drawn) (as salt: fumarate) [2-exo-2′-Fluoro-3′-(pyrimidin-5-yl)deschloroepibatidine fumarate] | – | – | – | – | – | – | – | melting point: 160 to 163 °C
Clc1ncc(C2CC3CCC2N3)cc1-c1cncnc1 (stereo not drawn) (as salt: fumarate) [Cl, 2-exo-2′-Chloro-3′-(pyrimidin-5-yl)deschloroepibatidine fumarate] | – | – | – | – | – | – | – | melting point: 199 to 203 °C
c1ncc(-c2cncc(C3CC4CCC3N4)c2)cn1 (stereo not drawn) (as salt: fumarate) [H, 2-exo-3′-(Pyrimidin-5-yl)deschloroepibatidine fumarate] | – | – | – | – | – | – | – | melting point: 172 to 176 °C
Clc1ccc(C2CC3CCC2N3)cn1 (single isomer, unassigned; (-)) [(−)-epibatidine, reference compound] | – | – | – | – | – | – | – | ED50 (mice [4]): 0.004 mg/kg
Clc1ncc(C2CC3CCC2N3)cc1-c1cncnc1 (stereo not drawn) [Cl, 2-exo-2′-Chloro-3′-(pyrimidin-5-yl)deschloroepibatidine fumarate] | – | – | – | – | – | – | – | Tail Flick, % effect at dose (mice [1]): 5% @ 100; Ki [2]: 170 ± 64 nM; ED50 (mice [3]): 0.28 mg/kg; ED50 (mice [4]): 0.25 mg/kg; ED50 (mice [5]): 0.027 mg/kg; Hot Plate, % effect at dose (mice [6]; @ 100 μg/kg): 2% @ 100; ED50 (mice [7]): 0.03 mg/kg
Fc1ncc(C2CC3CCC2N3)cc1-c1cncnc1 (stereo not drawn) [F, 2-exo-2′-Fluoro-3′-(pyrimidin-5-yl)deschloroepibatidine fumarate] | 0.24 µg/kg | – | – | – | – | – | – | Ki [2]: 1930 nM; ED50 (mice [3]): 2.15 mg/kg; ED50 (mice [4]): 1.2 mg/kg; ED50 (mice [5]): 0.15 mg/kg; Hot Plate, % effect at dose (mice [6]; @ 100 μg/kg): 33% @ 100; ED50 (mice [7]): 0.25 mg/kg
c1ncc(-c2cncc(C3CC4CCC3N4)c2)cn1 (stereo not drawn) [H, 2-exo-3′-(Pyrimidin-5-yl)deschloroepibatidine fumarate] | – | – | – | – | – | – | – | Tail Flick, % effect at dose (mice [1]): 15% @ 100; Ki [2]: 32.5 ± 1.3 nM; ED50 (mice [3]): 1.5 mg/kg; ED50 (mice [4]): 1.63 mg/kg; ED50 (mice [5]): 0.32 mg/kg; Hot Plate, % effect at dose (mice [6]; @ 100 μg/kg): 0% @ 100; ED50 (mice [7]): 0.6 mg/kg
CN1CCCC1c1cccnc1 (stereo not drawn) [Nicotine, reference compound] | – | – | – | – | – | – | – | ED50 (mice [3]): 1.3 mg/kg; ED50 (mice [4]): 0.65 mg/kg; ED50 (mice [5]): 0.5 mg/kg; ED50 (mice [7]): 1 mg/kg
